The values below come from patent publication US5601821A, “Immunoactive peptides and antibodies and their use in anti-allergy treatment” (National Research Development Corporation, priority 1989, dated 1997).

Where no end group is shown, it is not given here.

Assay [1] concerns rats experimentally sensitised to ovalbumin. The assay is described as follows: Serum histamine after systemic allergen (ovalbumin) challenge of sensitised, peptide-immunised rats. The class given is in vivo, rat. Here is the method: Groups of rats (male, Wistar) were hypersensitized by subcutaneous injection of a mixture (0.5 ml) of 0.5 ml chicken egg white (200 mg protein) and 2.5 ml Bordetella pertussis (40×10^10 organisms/ml)by a well-established experimental procedure (Jasani, B. and Stanworth, D. R., Journal of Immunologlcal Methods, 30, pp. 55-68 (1979)).
Repeat subcutaneous injections of the peptide-carrier protein conjugate mixed with incomplete Freund's adjuvant (IFA) were administered at days 14 and 21.
The effect of pre- or post-sensitisation immunisation with peptide (as described in section (b) above) on the state of hypersensitivity of rats which had been experimentally sensitised to ovalbumin (according to Example 5(a) above) was determined by the following procedure; similar investigations were carried out on non-immunised groups of rats as a control.
Animals from both the immunized and control groups were bled (from the tail vein) prior to systemic allergen challenge by intrapenal injection of ovalbumin (5 mg). The animals were sacrificed 10 min. later, whereupon a further sample of blood was obtained from their hearts. The histamine levels in serum from both pre-and post-allergen challenge blood samples were determined by a standard automated spectrofluorimetric procedure; the antibody profiles of the sera being determined by ELISA (according to Example 5(c) above).

Assay [2] deals with rat peritoneal mast cells. Also noted: dose or concentration left out as unconfirmed. Conditions: concentration range; cited from earlier work.
[3] abbreviates: A: immunised with peptide (PPD conjugate) before experimental sensitisation.
The mark [4] stands for this setting: B: immunised with peptide (PPD conjugate) after experimental sensitisation.

On to “F57: non-histamine releasing analogue of F49 in which the N-terminal lysine residue is replaced by glycine (GYNGSNQRFFIF-NH2)”, for which the “Histamine release (mean allergen-induced serum histamine level)” value in assay [1] (setting [3]) came out at 606 ng/mL; in assay [1] (setting [4]), 1159 ng/mL. Moreover, the “effect on allergen-induced histamine release” value in assay [1] (pre- or post-immunisation of experimentally sensitised rats) is recorded as “no significant effect”.

On to “KTKGSGFF [octapeptide (sequence 497-504), human IgE Cε4 residues 497-504]”, for which the “non-cytolytic histamine release from rat peritoneal mast cells” value (“non-cytolytic histamine release” for short) in assay [2] is “dose-dependent histamine release”.

Turning to “KTKGSGFFVF [decapeptide (sequence 497-506), human IgE Cε4 residues 497-506]”, the “non-cytolytic histamine release” value in assay [2] was “dose-dependent histamine release”.

For “Lys-Tyr-Asn-Gly-Ser-Asn-Gln-Arg-Phe-Phe-Ile-Phe-NH2 (KYNGSNQRFFIF-NH2) [F49, histamine releasing rat ε-chain dodecapeptide]”, the “Histamine release (mean allergen-induced serum histamine level)” value in assay [1] (setting [3]) was 0 ng/mL; in assay [1] (setting [4]) it was 50 ng/mL.

Consider “RKTKGSGFF [nonapeptide (sequence 496-504), human IgE Cε4 residues 496-504]”, for which the “non-cytolytic histamine release” value in assay [2] is given as “dose-dependent histamine release”.
